According to patent publication US3959351A, “Haloalkylbenzoyl esters of di-lower alkylamino alkanols and quaternary lower alkyl salts thereof” (priority 1972, dated 1976):

Target: electric eel cholinesterase (Type V) (Electrophorus electricus, UniProt O42275)
Assay: Inhibition of electric eel cholinesterase (Type V) by substituted benzoyl cholines (method of Rappaport et al.)
Format: biochemical
Settings: incubated with enzyme at room temperature (22°) for 40 minutes
Method: As stated heretofore, the compounds of the present invention when tested for inhibition of eel cholinesterase show good activity at rather low concentrations. Inhibition of cholinesterase activity of generally recognized as having positive correlation which insecticidal activity.
INHIBITION OF ELECTRIC EEL CHOLINESTERASE (TYPE V)
BY SUBSTITUTED BENZOYL CHOLINES
Activity Measurement Method:
*Reagent incubated with enzyme at room temperature (22°) for 40

[1] = 40 min, Bromomethyl- reagent type, concentration 10^-^4 M
[2] = Bromomethyl- reagent type, concentration 10^-^6 M
[3] = 40 min, Formyl- reagent type, concentration 10^-^4 M
[4] = Formyl- reagent type, concentration 10^-^3 M
[5] = Bromomethyl- reagent type, concentration 10^-^4 M
[6] = Formyl- reagent type, concentration 10^-^4 M

Sequence of electric eel cholinesterase (Type V) (O42275 24-633): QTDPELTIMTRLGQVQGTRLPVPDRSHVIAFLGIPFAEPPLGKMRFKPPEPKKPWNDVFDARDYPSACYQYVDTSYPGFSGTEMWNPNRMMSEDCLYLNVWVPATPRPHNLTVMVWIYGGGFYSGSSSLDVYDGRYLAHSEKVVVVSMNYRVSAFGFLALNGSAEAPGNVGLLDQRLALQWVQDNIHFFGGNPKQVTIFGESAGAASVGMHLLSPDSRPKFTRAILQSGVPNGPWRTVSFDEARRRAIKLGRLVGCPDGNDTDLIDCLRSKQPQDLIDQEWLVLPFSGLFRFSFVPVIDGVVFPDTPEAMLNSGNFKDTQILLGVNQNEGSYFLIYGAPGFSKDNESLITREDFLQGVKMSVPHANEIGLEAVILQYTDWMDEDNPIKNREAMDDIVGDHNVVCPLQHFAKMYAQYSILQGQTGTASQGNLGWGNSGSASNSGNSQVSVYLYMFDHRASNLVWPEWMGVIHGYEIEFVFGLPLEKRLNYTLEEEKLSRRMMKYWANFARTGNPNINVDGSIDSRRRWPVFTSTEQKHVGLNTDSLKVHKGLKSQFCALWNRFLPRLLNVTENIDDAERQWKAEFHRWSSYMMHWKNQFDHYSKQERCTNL

Structure (SMILES): C[N+](C)(C)CCOC(=O)c1cccc(CBr)c1CBr.[I-] [2,3 Bromomethyl-, 2,3-di(bromomethyl)benzoyl choline iodide]
- inhibition at 100 µM [1]: 40%
- INHIBITION [2]: None

Structure (SMILES): C[N+](C)(C)CCOC(=O)c1cccc(C=O)c1C=O.[I-] [2,3 Formyl-, 2,3-diformylbenzoyl choline iodide]
- inhibition at 100 µM [3]: 50%
- INHIBITION [4]: Complete

Structure (SMILES): C[N+](C)(C)CCOC(=O)c1ccc(CBr)cc1CBr.[I-] [2,4 Bromomethyl-, 2,4-di(bromomethyl)benzoyl choline iodide]
- INHIBITION [5]: Complete
- INHIBITION [2]: None

Structure (SMILES): C[N+](C)(C)CCOC(=O)c1ccc(C=O)cc1C=O.[I-] [2,4 Formyl-, 2,4-diformylbenzoyl choline iodide]
- inhibition at 100 µM [3]: 50%
- INHIBITION [4]: Complete

Structure (SMILES): C[N+](C)(C)CCOC(=O)c1cc(CBr)ccc1CBr.[I-] [2,5 Bromomethyl-, 2,5-di(bromomethyl)benzoyl choline iodide]
- inhibition at 100 µM [1]: 80%
- INHIBITION [2]: None

Structure (SMILES): C[N+](C)(C)CCOC(=O)c1cc(C=O)ccc1C=O.[I-] [2,5 Formyl-, 2,5-diformylbenzoyl choline iodide]
- inhibition at 100 µM [3]: 50%
- INHIBITION [4]: Complete

Structure (SMILES): C[N+](C)(C)CCOC(=O)c1ccc(CBr)c(CBr)c1 [3,4 Bromomethyl-, 3,4-di(bromomethyl)benzoyl choline iodide]
- inhibition at 100 µM [1]: 90%
- inhibition at 1 µM (40 min, Bromomethyl- reagent type, concentration 10^-^6 M): 30%

Structure (SMILES): C[N+](C)(C)CCOC(=O)c1ccc(C=O)c(C=O)c1.[I-] [3,4 Formyl-, 3,4-diformylbenzoyl choline iodide]
- inhibition at 100 µM [3]: 25%
- INHIBITION [4]: Complete

Structure (SMILES): C[N+](C)(C)CCOC(=O)c1cc(CBr)cc(CBr)c1.[I-] [3,5 Bromomethyl-, 3,5-di(bromomethyl)benzoyl choline iodide]
- inhibition at 100 µM [1]: 90%
- INHIBITION [2]: None

Structure (SMILES): C[N+](C)(C)CCOC(=O)c1cc(C=O)cc(C=O)c1.[I-] [3,5 Formyl-, 3,5-diformylbenzoyl choline iodide]
- INHIBITION [4]: Complete
- INHIBITION [6]: Complete

Structure (SMILES): C[N+](C)(C)CCOC(=O)c1cccc(CBr)c1.[I-] [meta Bromomethyl-, m-bromomethyl benzoyl choline iodide]
- INHIBITION [5]: None
- INHIBITION [2]: None

Structure (SMILES): C[N+](C)(C)CCOC(=O)c1cccc(C=O)c1.[I-] [meta Formyl-, m-formylbenzoyl choline iodide]
- inhibition at 1000 µM (40 min, Formyl- reagent type, concentration 10^-^3 M): 60%
- INHIBITION [6]: None

Structure (SMILES): C[N+](C)(C)CCOC(=O)c1ccccc1CBr.[I-] [ortho Bromomethyl-, o-bromomethyl benzoyl choline iodide]
- INHIBITION [5]: None
- INHIBITION [2]: None

Structure (SMILES): C[N+](C)(C)CCOC(=O)c1ccccc1C=O.[I-] [ortho Formyl-, o-formylbenzoyl choline iodide]
- INHIBITION [4]: None
- INHIBITION [6]: None

Structure (SMILES): C[N+](C)(C)CCOC(=O)c1ccc(CBr)cc1.[I-] [para Bromomethyl-, para-bromomethyl benzoyl choline iodide]
- INHIBITION [5]: Complete
- INHIBITION [2]: None

Structure (SMILES): C[N+](C)(C)CCOC(=O)c1ccc(C=O)cc1.[Br-] [para Formyl-, p-Formyl benzoyl choline bromide]
- INHIBITION [4]: Complete
- INHIBITION [6]: None
